What was measured:
[1] = biological target: T1, bovine FXa (Bos taurus, UniProt P00743); conditions: 1 µM inhibitor; 20 µM substrate; 1 mM CaCl2, 50 mM Tris-HCl pH 8.0; 37 °C
T1 construct: gene F10

[2] = biological target: T2, Bovine thrombin (Bos taurus, UniProt P00735); conditions: 1 µM inhibitor; 20 µM substrate; 1 mM CaCl2, 50 mM Tris-HCl pH 8.0; 37 °C
T2 construct: gene F2

T1 sequence (P00743 41-180): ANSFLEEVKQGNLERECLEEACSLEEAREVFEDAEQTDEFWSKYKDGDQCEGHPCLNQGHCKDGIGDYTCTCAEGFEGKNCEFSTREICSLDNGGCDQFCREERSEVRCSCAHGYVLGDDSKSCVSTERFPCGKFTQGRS
T1 sequence (P00743 234-492): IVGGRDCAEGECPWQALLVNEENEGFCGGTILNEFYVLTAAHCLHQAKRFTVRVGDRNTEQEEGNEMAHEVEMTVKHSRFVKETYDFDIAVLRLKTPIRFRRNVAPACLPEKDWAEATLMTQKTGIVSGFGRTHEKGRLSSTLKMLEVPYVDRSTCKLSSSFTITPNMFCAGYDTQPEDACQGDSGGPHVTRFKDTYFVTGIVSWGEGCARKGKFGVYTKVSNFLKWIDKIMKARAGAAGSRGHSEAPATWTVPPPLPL

In the case of N=C(N)c1ccc(CC(NC(=O)CNS(=O)(=O)c2ccc3ccccc3c2)C(=O)N2CCCCC2)cc1 (centres unmarked) [NAPAP], the “inhibition of cleavage of Pyr-Pro-Arg-AMC (fluorescence)” value [1] is reported as “FXa activity was fully blocked by apixaban and partially blocked by NAPAP” and the “inhibition of cleavage of Pyr-Pro-Arg-AMC (fluorescence)” value [2] is reported as “cleavage of the substrate by thrombin was fully blocked by NAPAP”.

Reference: article PMC7177216, “A Novel Highly Sensitive Method for Measuring Inflammatory Neural-Derived APC Activity in Glial Cell Lines, Mouse Brain and Human CSF” (International Journal of Molecular Sciences, 2020)
